In one data set the target is Integrin alpha-5/beta-1 (Homo sapiens, UniProt P05556+P08648). Nature of the data set: Binding affinity to integrin alpha-5-beta-1 receptor by solid phase binding assay. In kind it is protein-complex assay.
Another data set has as its target Integrin alpha-V/beta-3 (Homo sapiens, UniProt P05106+P06756). Put plainly: Binding affinity to integrin alpha-v-beta-3 receptor by solid phase binding assay. In kind it is protein-complex assay.
For data set [1], the target named is Integrin alpha-IIb/beta-3 (Homo sapiens, UniProt P05106+P08514). Nature of the data set: Binding affinity to integrin alpha-2b-beta-3 receptor by solid phase binding assay. In kind it is protein-complex assay.
The species named for a further data set is Homo sapiens. Put plainly: Selectivity for integrin alpha2bbeta3 receptor over integrin alphavbeta3 receptor.
The nature of data set [2]: Permeability across human Caco-2 cell monolayer. In kind it is ADME, cell-based.

SMILES strings stand for the structures. Square brackets hold non-standard residues; d marks the D form. Peptide text beside a SMILES is read from it.

Sequence of Integrin alpha-5/beta-1 (P05556 21-798 limits assumed): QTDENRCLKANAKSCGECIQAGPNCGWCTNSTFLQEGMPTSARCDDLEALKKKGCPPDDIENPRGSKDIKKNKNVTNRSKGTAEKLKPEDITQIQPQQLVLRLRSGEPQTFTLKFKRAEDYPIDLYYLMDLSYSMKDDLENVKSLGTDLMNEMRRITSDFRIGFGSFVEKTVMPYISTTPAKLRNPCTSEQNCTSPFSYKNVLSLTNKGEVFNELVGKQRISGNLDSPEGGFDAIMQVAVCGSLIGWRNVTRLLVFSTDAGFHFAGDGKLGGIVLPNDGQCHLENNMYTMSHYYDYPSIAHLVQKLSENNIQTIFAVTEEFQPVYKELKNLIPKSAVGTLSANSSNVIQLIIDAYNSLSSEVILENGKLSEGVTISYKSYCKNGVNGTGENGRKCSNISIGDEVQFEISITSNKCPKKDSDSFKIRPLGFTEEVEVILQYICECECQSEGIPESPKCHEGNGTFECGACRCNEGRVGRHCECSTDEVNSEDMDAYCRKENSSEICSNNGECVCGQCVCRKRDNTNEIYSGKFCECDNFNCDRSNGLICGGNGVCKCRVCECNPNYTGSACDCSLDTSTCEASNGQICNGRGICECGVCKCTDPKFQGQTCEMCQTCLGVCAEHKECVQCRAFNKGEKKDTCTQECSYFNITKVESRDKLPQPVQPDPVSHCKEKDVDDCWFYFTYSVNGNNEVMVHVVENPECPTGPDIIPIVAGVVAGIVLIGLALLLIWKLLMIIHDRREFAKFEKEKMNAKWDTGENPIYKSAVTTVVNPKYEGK
Sequence of Integrin alpha-5/beta-1 (P08648 42-894 limits assumed): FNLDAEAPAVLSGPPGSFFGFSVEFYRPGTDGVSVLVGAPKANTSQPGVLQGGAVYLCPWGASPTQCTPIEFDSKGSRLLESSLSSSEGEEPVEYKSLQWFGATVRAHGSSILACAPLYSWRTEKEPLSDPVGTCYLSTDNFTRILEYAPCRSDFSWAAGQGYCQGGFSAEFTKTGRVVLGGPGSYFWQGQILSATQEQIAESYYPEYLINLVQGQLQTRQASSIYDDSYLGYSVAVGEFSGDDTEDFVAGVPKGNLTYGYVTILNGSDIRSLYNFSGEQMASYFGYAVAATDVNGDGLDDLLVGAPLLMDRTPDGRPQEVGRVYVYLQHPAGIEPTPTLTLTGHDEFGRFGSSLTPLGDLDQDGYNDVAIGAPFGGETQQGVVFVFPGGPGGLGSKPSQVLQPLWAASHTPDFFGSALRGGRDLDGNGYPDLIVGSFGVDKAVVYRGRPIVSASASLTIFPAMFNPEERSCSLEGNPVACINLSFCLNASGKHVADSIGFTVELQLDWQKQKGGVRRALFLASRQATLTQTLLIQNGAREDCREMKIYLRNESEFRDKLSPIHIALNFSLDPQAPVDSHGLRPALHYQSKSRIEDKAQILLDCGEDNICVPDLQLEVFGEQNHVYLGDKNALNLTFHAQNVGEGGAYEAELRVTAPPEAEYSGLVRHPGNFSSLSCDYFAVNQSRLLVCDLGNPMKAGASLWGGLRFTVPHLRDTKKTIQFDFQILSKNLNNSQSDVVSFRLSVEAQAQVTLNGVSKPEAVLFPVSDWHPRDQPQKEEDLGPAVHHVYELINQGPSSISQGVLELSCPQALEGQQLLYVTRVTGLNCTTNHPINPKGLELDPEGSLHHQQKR
Sequence of Integrin alpha-5/beta-1 (P08648 895-1049 limits assumed): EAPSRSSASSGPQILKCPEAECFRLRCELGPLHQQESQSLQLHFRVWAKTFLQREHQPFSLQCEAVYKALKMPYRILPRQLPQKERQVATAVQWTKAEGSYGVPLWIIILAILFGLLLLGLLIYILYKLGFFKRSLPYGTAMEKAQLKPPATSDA
Sequence of Integrin alpha-IIb/beta-3 (P05106 27-788 limits assumed): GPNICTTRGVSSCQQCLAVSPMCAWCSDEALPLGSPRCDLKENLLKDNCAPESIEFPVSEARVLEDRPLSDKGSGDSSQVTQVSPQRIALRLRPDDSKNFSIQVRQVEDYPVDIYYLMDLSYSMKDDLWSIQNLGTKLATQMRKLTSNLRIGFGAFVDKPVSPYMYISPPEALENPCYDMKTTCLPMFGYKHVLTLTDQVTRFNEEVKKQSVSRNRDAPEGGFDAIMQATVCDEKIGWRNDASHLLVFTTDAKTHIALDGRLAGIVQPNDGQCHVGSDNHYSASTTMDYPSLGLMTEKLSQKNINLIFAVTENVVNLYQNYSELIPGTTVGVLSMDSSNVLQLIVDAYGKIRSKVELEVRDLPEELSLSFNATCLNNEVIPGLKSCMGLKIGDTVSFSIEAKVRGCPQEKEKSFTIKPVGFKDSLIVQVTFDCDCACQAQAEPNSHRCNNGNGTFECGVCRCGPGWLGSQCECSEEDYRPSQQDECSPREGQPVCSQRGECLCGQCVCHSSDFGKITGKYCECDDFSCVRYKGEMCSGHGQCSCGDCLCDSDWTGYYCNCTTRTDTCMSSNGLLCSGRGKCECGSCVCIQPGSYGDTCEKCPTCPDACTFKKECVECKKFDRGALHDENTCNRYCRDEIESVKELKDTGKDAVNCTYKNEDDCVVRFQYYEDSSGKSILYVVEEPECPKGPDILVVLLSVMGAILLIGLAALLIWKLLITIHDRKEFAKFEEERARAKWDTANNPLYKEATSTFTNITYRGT
Sequence of Integrin alpha-IIb/beta-3 (P08514 32-887 limits assumed): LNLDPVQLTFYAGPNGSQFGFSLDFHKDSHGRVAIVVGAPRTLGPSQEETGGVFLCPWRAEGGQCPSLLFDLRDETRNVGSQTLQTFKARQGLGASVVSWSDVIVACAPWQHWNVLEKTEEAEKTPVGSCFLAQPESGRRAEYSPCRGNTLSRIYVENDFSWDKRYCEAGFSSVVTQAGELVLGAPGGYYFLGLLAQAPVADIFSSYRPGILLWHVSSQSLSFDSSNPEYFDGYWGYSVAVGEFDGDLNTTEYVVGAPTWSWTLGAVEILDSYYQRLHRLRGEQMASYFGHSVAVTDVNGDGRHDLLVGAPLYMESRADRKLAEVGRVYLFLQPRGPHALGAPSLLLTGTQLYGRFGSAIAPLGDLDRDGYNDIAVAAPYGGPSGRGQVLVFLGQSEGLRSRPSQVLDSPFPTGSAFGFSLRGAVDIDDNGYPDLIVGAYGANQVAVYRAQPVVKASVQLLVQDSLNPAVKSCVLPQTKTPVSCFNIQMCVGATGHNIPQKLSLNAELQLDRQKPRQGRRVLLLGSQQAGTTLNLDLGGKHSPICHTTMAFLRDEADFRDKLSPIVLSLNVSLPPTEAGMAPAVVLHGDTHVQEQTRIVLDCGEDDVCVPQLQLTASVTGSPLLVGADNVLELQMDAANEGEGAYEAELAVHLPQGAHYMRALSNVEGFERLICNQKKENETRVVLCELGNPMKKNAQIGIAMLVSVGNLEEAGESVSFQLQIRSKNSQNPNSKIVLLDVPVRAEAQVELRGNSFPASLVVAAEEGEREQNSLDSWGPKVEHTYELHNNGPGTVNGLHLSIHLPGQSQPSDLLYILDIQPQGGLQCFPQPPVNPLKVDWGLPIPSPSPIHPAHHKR
Sequence of Integrin alpha-IIb/beta-3 (P08514 891-1039 limits assumed): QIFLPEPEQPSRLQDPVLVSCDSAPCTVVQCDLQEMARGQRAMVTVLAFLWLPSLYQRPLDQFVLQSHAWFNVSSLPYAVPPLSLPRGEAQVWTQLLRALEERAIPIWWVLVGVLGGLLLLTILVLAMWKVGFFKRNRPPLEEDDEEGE
Sequence of Integrin alpha-V/beta-3 (P05106 27-788 limits assumed): as the sequence (P05106 27-788 limits assumed) above
Sequence of Integrin alpha-V/beta-3 (P06756 31-889 limits assumed): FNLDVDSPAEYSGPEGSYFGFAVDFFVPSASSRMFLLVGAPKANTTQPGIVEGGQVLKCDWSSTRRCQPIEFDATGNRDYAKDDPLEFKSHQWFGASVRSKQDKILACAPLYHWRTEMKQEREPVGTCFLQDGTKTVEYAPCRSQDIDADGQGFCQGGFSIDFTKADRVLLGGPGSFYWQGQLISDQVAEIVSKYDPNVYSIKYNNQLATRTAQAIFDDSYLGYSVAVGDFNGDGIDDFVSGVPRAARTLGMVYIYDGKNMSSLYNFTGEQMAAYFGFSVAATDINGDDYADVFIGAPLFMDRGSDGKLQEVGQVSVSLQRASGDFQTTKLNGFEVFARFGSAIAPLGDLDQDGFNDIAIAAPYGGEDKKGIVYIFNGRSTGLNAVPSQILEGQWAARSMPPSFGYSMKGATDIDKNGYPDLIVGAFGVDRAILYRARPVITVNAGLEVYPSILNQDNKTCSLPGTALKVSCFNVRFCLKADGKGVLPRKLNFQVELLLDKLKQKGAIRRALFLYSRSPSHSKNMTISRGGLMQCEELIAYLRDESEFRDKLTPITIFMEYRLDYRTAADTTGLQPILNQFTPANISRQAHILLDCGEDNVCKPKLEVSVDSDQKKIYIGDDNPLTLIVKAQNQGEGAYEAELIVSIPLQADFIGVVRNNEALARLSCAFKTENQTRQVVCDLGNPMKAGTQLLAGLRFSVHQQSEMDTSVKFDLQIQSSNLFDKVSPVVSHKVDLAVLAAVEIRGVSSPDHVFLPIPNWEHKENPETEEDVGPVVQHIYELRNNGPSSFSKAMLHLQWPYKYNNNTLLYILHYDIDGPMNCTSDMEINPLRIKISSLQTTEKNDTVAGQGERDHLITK
Sequence of Integrin alpha-V/beta-3 (P06756 891-1048 limits assumed): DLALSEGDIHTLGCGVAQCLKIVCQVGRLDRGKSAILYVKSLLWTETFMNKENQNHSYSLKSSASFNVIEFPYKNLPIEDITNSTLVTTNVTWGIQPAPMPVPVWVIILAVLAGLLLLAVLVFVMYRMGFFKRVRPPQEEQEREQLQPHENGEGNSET

On to `CC(C)C[C@@H]1NC(=O)[C@@H](Cc2ccccc2)NC(=O)[C@H](CC(=O)O)NC(=O)CNC(=O)[C@H](CCCNC(=N)N)NC(=O)CNC1=O` (cyclo(GRGD[dF]L)), for which the IC50 amounted to 740 nM at Integrin alpha-5/beta-1, 100 nM at Integrin alpha-V/beta-3 and 195 nM in data set [1]. Moreover, the Ratio IC50 in the data set listed under Homo sapiens worked out at 0.5. In data set [2], this molecule gave an apparent permeability coefficient (Papp) of 0.03 ×10⁻⁶ cm/s.
In the case of `CC(C)C[C@H]1C(=O)NCC(=O)N[C@@H](CCCNC(=N)N)C(=O)NCC(=O)N[C@@H](CC(=O)O)C(=O)N[C@H](Cc2ccccc2)C(=O)N1C`, in the data set listed under Homo sapiens, the Ratio IC50 stood at 0.2.
As to `CC(C)C[C@H]1C(=O)NCC(=O)N[C@@H](CCCN=C(N)N)C(=O)NCC(=O)N[C@@H](CC(=O)O)C(=O)N[C@H](Cc2ccccc2)C(=O)N1C`, the values for the IC50 (at Integrin alpha-5/beta-1; at Integrin alpha-V/beta-3; in data set [1]) were 3900 nM, 103 nM and 560 nM, respectively. The molecule further showed a Papp in data set [2] of 0.03 ×10⁻⁶ cm/s.
As to `CC(C)C[C@H]1C(=O)NCC(=O)N[C@@H](CCCNC(=N)N)C(=O)NCC(=O)N[C@@H](CC(=O)O)C(=O)N(C)[C@H](Cc2ccccc2)C(=O)N1C`, the Ratio IC50 in the data set listed under Homo sapiens was found to be 2.
As to `CC(C)C[C@@H]1NC(=O)[C@@H](Cc2ccccc2)N(C)C(=O)[C@H](CC(=O)O)NC(=O)CNC(=O)[C@H](CCCNC(=N)N)N(C)C(=O)CNC1=O`, the IC50 on Integrin alpha-5/beta-1 is more than 20000 nM; at Integrin alpha-V/beta-3, 2730 nM; in data set [1] it was 165 nM. For the same molecule, the Ratio IC50 in the data set listed under Homo sapiens came out at 16. Further, the Papp in data set [2] is 0.03 ×10⁻⁶ cm/s.
For `CC(C)C[C@H]1C(=O)NCC(=O)N(C)[C@@H](CCCNC(=N)N)C(=O)NCC(=O)N[C@@H](CC(=O)O)C(=O)N[C@H](Cc2ccccc2)C(=O)N1C` the same measures were 20000 nM, 1300 nM, 15 nM, 86 and 0.03 ×10⁻⁶ cm/s.
As for `CC(C)C[C@H]1C(=O)NCC(=O)N(C)[C@@H](CCCN=C(N)N)C(=O)NCC(=O)N[C@@H](CC(=O)O)C(=O)N(C)[C@H](Cc2ccccc2)C(=O)N1C`, the IC50 is more than 20000 nM on Integrin alpha-5/beta-1, 12200 nM at Integrin alpha-V/beta-3 and 30 nM in data set [1]. The molecule further had a Papp in data set [2] of 0.03 ×10⁻⁶ cm/s.
`CC(C)C[C@H]1C(=O)NCC(=O)N(C)[C@@H](CCCNC(=N)N)C(=O)NCC(=O)N[C@@H](CC(=O)O)C(=O)N(C)[C@H](Cc2ccccc2)C(=O)N1C`: in the data set listed under Homo sapiens, the Ratio IC50 worked out at 406.
Take `CC(C)C[C@@H]1NC(=O)[C@@H](Cc2ccccc2)NC(=O)[C@H](CC(=O)O)NC(=O)CNC(=O)[C@H](CCCN=C(N)N)N(C)C(=O)CNC1=O`: the IC50 at Integrin alpha-5/beta-1 came to 1200 nM; at Integrin alpha-V/beta-3 it was 770 nM; in data set [1], 12 nM. Moreover, the Papp in data set [2] worked out at 0.03 ×10⁻⁶ cm/s.
For `CC(C)C[C@@H]1NC(=O)[C@@H](Cc2ccccc2)N(C)C(=O)[C@H](CC(=O)O)NC(=O)CNC(=O)[C@H](CCCN=C(N)N)NC(=O)CNC1=O` the same measures were 4300 nM, 490 nM, 2000 nM and 0.03 ×10⁻⁶ cm/s.
For `CC(C)C[C@H]1C(=O)NCC(=O)N[C@@H](CCCN=C(N)N)C(=O)NCC(=O)N[C@@H](CC(=O)O)C(=O)N(C)[C@H](Cc2ccccc2)C(=O)N1C` the same measures were more than 20000 nM, 1200 nM, 620 nM and 0.03 ×10⁻⁶ cm/s.
Regarding `CC(C)C[C@@H]1NC(=O)[C@@H](Cc2ccccc2)N(C)C(=O)[C@H](CC(=O)O)NC(=O)CNC(=O)[C@H](CCCNC(=N)N)NC(=O)CNC1=O`, the Ratio IC50 in the data set listed under Homo sapiens is 0.2.
On to `OC[C@@H](O)[C@@H](O)[C@H](O)[C@H](O)CO` [MANNITOL], for which the apparent permeability (Papp) in data set [2] is 0.9 ×10⁻⁶ cm/s.
Regarding `CC(C)C[C@@H]1NC(=O)[C@@H](Cc2ccccc2)NC(=O)[C@H](CC(=O)O)NC(=O)CNC(=O)[C@H](CCCNC(=N)N)N(C)C(=O)CNC1=O`, the Ratio IC50 in the data set listed under Homo sapiens came to 64.

The values are drawn from ChEMBL document CHEMBL1138295, “Multiple N-methylation by a designed approach enhances receptor selectivity” (J Med Chem, 2007).
